The record followed here is ChEMBL document CHEMBL1201862, “PubChem BioAssay data set” (2004).

Assay [1] has as its target T1, G-protein coupled receptor 35 (Homo sapiens, UniProt Q9HC97). Put plainly: SAR analysis of Antagonists of the GPR35 Receptor using an Image-Based Assay - Set 6. [Related pubchem assays (depositor defined):AID2013, AID2026]. It is filed as functional.
The target of assay [2] is T1, G-protein coupled receptor 35. Nature of the assay: SAR analysis of Agonists of the GPR35 Receptor using an Image-Based Assay - Set 4. [Related pubchem assays (depositor defined):AID2013, AID2026]. It is filed as functional.
The target in assay [3] is T2, Cannabinoid receptor 2 (Homo sapiens, UniProt P34972). Nature of the assay: SAR analysis of agonists of the Cannabinoid Receptor 2 using an Image-Based Assay - Set 3. [Related pubchem assays (depositor defined):AID2013, AID2026]. It counts as functional.
Assay [4] concerns the target T3, Cannabinoid receptor 1 (Homo sapiens, UniProt P21554). Put plainly: SAR analysis of agonists of the Cannabinoid Receptor 1 using an Image-Based Assay - Set 4. [Related pubchem assays (depositor defined):AID2013, AID2026]. It is filed as functional.
In assay [5] the target is G-protein coupled receptor 55 (Homo sapiens, UniProt Q9Y2T6). Put plainly: SAR Analysis of Selective Antagonists of GPR55 using an Image-Based Assay - Set 4. [Related pubchem assays (depositor defined):AID2013, AID2026]. It counts as functional.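 Also: antagonism of response to 5 µM lysophosphatidylinositol agonist.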
The target in assay [6] is T2, Cannabinoid receptor 2. Nature of the assay: SAR analysis of antagonists of the Cannabinoid Receptor 2 using an Image-Based Assay - Set 3. [Related pubchem assays (depositor defined):AID2013, AID2026]. It is filed as functional.
In assay [7] the target is T3, Cannabinoid receptor 1. Put plainly: SAR analysis of antagonists of the Cannabinoid Receptor 1 using an Image-Based Assay - Set 4. [Related pubchem assays (depositor defined):AID2013, AID2026]. It is filed as functional.
The target in assay [8] is Intestinal-type alkaline phosphatase (Homo sapiens, UniProt P09923). Put plainly: human intestinal alkaline phosphatase activators, dose response, biochemical, luminescence, uHTS hits (AID 463120). It is filed as functional.
Assay [9] has as its target Hexokinase-1 (Homo sapiens, UniProt P19367). Put plainly: HK1 enzyme activation by HKDC1 hits – biochemical, selectivity assay for HKDC1 activator project, dose response (AID 504762). It counts as functional.
Assay [10] has as its target Genome polyprotein (dengue virus type 2, UniProt P29990). Nature of the assay: flavivirus cap methylation enzyme inhibition – biochemical, confirmation dose response, primary screen (AID 588689). It counts as functional.
Assay [11] addresses T4, Apoptotic protease-activating factor 1 (Homo sapiens, UniProt O14727).
T4 sequence (O14727 whole entry): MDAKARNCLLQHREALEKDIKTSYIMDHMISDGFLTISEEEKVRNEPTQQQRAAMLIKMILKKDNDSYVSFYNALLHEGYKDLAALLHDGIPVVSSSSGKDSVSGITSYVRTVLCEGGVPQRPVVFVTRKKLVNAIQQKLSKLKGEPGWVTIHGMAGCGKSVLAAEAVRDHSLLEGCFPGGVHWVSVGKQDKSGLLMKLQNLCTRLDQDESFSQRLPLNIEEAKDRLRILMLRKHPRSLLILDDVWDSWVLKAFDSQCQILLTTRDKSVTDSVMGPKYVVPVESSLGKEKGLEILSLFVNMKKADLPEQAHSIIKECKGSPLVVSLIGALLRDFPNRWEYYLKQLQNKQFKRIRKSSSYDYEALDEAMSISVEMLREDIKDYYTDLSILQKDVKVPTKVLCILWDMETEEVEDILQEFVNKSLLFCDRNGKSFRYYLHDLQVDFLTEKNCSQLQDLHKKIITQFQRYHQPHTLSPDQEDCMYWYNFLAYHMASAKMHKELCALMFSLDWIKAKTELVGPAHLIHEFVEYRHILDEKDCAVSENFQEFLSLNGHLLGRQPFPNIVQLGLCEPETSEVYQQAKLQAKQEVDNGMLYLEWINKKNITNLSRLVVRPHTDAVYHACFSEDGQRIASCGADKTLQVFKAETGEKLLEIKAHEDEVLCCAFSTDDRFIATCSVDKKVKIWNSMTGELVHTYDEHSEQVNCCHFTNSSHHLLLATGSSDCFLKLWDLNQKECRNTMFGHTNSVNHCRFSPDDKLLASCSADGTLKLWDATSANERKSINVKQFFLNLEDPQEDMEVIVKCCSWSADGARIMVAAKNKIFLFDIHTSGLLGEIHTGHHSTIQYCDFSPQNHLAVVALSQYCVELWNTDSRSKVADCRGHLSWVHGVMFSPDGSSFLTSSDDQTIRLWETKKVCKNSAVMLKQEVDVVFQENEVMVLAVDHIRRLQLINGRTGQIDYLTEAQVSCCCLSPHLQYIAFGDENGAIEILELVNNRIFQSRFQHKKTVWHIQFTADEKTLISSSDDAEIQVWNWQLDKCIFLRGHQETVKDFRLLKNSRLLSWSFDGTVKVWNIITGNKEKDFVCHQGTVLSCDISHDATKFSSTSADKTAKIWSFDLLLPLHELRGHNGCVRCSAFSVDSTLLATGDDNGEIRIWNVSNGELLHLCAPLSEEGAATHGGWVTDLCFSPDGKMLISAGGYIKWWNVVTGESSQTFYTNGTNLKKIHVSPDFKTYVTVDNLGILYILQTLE
It is filed as functional.

Assay [12] has as its system Vero. Nature of the assay: viability of Vero cells under compound – cytotoxicity control for flavivirus capping enzyme inhibitors (AID 588742). It counts as functional. Particulars: Chlorocebus sabaeus.
Assay [13] addresses T5, Hexokinase HKDC1 (Homo sapiens, UniProt Q2TB90).
T5 sequence (Q2TB90 whole entry): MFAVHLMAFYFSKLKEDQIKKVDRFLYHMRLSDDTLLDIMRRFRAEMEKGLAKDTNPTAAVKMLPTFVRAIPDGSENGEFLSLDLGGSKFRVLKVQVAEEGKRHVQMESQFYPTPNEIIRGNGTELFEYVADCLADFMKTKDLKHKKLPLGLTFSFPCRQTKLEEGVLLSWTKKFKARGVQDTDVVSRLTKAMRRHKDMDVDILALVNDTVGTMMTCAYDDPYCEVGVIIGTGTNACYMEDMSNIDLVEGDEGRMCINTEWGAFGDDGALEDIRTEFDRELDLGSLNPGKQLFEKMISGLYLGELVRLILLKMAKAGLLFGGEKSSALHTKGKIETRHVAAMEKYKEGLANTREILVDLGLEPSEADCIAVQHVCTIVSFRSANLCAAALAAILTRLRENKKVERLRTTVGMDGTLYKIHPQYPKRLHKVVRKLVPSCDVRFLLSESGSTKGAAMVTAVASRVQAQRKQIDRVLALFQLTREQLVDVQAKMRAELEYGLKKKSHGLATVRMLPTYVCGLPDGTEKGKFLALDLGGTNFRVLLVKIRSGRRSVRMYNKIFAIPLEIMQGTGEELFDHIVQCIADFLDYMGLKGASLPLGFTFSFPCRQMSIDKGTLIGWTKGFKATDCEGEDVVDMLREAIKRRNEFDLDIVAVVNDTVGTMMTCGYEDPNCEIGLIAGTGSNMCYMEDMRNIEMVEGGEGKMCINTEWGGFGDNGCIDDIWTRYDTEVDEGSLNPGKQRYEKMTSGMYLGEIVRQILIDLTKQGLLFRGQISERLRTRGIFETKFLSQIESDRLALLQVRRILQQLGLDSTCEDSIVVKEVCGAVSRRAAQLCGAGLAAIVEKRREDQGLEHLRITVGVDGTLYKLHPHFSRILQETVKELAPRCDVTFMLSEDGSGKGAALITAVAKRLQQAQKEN
Nature of the assay: activation of HKDC1 glucose phosphorylation – biochemical, W721R variant, dose response (AID 504730). It is filed as functional.

Assay [14] deals with T6, Protein RecA (Mycobacterium tuberculosis, UniProt P9WHJ3).
T6 sequence (P9WHJ3 whole entry): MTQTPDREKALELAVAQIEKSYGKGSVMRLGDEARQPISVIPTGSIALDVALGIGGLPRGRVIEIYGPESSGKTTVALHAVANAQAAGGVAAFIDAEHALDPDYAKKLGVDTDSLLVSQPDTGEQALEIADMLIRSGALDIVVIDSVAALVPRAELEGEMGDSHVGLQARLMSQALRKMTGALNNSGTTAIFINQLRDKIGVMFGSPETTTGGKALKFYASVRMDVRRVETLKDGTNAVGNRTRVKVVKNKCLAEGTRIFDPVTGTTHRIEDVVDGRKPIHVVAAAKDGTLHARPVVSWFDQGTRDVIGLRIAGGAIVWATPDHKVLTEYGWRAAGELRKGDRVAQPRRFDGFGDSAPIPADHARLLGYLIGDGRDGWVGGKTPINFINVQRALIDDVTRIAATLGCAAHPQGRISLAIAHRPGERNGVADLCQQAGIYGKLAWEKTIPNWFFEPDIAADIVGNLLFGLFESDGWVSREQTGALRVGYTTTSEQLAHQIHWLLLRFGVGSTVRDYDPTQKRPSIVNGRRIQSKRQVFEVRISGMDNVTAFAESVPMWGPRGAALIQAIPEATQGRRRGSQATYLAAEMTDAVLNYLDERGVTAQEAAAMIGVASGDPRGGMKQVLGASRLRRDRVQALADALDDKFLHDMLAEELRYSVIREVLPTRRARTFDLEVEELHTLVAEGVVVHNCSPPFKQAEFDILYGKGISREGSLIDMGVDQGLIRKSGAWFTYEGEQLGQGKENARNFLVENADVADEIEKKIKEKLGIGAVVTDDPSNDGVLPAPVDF
Put plainly: Fluorescence Cell-Free Homogeneous Dose Retest to Identify Inhibitors of RecA-Intein Splicing Activity. [Related pubchem assays (depositor defined):AID2097, AID2223, AID489010, AID492950]. It counts as functional.

For assay [15], the target named is T7, Peroxisome proliferator-activated receptor gamma (Homo sapiens, UniProt P37231).
T7 sequence (P37231 whole entry): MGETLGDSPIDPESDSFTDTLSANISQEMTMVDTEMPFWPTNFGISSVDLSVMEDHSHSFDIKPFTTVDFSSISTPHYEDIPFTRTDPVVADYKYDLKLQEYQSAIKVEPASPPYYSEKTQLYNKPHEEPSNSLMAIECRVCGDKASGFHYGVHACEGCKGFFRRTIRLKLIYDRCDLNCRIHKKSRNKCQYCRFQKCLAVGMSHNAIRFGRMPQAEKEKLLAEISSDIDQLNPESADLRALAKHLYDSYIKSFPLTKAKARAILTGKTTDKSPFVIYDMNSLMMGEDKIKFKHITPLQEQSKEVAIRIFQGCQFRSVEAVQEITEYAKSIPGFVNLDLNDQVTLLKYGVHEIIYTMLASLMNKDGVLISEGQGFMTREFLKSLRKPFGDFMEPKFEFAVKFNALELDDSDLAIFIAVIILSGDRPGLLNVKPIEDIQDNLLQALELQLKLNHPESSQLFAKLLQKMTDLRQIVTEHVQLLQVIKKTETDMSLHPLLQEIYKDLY
Nature of the assay: competitive ligand displacement at PPARg – biochemical, TR-FRET, LanthaScreen, PPARg partial agonist project, dose response (AID 504446). In general terms: In TR-FRET formats the signal depends on donor and acceptor labels being close together.

For assay [16], the target named is T7, Peroxisome proliferator-activated receptor gamma. Nature of the assay: PPARg transcriptional activation, reporter cells – cell-based, luminescence, assay provider, dose response (AID 504447). It is filed as functional.
Assay [17] shares this target. Put plainly: competitive ligand displacement at PPARg – biochemical, fluorescence polarization, PolarScreen, PPARg partial agonist project, dose response (AID 504453). On the technique in general: Fluorescence polarisation rises when a labelled molecule tumbles more slowly, as on binding a larger partner.

Activity calls are given as the source filed them.

T2 sequence (P34972 whole entry): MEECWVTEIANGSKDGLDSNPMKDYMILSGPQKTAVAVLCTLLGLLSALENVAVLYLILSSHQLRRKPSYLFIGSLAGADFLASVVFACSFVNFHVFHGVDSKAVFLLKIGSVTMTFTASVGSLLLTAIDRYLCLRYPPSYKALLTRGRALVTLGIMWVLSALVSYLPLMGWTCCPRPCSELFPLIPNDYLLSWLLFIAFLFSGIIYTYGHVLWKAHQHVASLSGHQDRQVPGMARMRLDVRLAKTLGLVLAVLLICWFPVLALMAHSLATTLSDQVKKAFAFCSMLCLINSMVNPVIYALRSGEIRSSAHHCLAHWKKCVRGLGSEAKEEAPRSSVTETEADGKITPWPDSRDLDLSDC
T1 sequence (Q9HC97 whole entry): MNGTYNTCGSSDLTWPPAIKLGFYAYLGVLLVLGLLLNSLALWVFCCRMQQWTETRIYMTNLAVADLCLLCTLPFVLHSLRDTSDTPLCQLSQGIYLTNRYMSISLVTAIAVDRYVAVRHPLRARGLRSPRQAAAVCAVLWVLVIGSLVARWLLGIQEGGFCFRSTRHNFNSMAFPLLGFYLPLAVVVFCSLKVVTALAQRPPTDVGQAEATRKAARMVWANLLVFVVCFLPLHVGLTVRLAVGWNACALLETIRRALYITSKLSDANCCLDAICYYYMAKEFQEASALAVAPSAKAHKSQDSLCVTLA
T3 sequence (P21554 whole entry): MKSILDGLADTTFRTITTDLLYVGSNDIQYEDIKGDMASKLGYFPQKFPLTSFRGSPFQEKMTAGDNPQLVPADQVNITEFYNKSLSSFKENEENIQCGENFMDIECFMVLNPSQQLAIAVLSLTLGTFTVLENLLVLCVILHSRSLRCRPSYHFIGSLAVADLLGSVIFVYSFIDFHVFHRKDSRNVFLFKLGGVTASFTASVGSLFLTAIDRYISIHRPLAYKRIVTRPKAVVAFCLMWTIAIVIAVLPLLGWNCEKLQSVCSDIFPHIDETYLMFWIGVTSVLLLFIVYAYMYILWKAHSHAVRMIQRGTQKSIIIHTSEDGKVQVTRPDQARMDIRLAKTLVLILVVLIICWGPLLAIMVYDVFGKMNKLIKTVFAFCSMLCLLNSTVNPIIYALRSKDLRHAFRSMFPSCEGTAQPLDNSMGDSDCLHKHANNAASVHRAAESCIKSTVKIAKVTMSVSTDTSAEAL
Hexokinase-1, sequence (P19367 whole entry): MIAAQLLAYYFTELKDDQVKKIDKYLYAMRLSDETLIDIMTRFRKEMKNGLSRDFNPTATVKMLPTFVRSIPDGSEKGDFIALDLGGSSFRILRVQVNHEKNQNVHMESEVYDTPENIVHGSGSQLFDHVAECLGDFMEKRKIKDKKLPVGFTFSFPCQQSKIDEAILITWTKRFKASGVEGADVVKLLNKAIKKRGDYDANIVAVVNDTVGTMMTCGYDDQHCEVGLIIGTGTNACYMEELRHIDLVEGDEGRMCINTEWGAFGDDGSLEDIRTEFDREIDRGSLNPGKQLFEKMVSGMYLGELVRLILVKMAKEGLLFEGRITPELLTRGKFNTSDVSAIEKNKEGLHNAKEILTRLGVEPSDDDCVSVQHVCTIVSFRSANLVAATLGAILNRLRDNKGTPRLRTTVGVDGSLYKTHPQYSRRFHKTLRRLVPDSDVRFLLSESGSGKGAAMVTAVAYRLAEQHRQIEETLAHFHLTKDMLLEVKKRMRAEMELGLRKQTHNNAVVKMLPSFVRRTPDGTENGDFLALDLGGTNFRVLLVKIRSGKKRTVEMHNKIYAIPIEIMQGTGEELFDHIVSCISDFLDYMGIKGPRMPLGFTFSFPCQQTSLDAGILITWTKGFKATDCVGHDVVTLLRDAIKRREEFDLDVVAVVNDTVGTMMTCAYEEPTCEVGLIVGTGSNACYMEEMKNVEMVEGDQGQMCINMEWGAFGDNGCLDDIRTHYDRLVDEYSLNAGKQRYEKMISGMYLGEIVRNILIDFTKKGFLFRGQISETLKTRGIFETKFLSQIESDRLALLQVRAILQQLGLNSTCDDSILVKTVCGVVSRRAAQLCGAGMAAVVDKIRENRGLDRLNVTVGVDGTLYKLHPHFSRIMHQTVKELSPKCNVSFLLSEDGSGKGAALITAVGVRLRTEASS
G-protein coupled receptor 55, sequence (Q9Y2T6 whole entry): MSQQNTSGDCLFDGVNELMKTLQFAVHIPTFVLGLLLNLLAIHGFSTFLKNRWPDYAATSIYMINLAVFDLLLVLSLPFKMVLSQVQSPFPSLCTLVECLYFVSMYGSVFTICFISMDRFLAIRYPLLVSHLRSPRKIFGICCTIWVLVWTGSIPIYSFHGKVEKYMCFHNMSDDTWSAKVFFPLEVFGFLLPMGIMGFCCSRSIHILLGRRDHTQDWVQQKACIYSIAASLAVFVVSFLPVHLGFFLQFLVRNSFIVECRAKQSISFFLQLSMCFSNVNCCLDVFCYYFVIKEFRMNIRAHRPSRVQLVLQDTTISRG
Genome polyprotein, sequence (P29990 2492-3391 limits assumed): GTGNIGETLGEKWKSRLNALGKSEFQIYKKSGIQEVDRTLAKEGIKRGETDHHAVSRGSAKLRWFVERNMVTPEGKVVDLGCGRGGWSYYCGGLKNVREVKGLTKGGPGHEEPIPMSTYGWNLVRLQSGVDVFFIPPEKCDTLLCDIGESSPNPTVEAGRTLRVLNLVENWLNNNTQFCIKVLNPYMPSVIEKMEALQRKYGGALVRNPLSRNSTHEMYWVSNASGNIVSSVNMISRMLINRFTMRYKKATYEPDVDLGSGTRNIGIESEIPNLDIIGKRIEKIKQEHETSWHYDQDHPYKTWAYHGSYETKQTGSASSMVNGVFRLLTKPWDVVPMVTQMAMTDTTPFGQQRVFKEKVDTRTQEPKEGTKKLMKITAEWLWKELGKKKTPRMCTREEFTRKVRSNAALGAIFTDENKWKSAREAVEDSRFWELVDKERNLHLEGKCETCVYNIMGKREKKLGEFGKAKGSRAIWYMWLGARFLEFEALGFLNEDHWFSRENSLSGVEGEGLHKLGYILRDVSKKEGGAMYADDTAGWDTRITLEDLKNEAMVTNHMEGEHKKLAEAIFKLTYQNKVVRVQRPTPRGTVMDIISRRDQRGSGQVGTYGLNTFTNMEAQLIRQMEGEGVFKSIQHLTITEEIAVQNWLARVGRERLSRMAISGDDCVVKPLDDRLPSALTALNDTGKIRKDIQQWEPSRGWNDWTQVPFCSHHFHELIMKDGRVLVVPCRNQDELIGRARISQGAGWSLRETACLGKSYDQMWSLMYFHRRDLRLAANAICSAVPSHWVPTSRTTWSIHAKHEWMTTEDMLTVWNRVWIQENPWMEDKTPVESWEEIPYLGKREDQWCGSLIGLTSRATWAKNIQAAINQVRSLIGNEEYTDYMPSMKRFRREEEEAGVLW
Intestinal-type alkaline phosphatase, sequence (P09923 whole entry): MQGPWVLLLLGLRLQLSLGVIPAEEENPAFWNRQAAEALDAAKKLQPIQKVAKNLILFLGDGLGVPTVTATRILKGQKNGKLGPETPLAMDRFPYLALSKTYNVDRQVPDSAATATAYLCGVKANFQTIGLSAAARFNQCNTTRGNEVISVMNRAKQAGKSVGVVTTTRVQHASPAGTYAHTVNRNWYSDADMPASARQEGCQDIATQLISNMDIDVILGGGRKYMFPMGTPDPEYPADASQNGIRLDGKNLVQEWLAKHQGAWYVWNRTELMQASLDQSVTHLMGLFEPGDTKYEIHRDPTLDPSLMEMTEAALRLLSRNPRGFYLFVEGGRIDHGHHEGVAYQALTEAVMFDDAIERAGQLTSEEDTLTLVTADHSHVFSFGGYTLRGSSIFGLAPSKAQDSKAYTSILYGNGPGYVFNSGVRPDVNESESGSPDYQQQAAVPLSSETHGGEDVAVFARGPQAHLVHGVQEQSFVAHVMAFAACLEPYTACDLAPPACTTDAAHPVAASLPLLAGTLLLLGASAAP

The IC50 is the concentration at which inhibition is half-maximal. The EC50 is the concentration giving half of the maximal effect. Regarding `Cc1nc(N2CCN(C(=O)NCc3ccccc3)CC2)c2c3c(sc2n1)CCCC3`, the IC50 was > 32 µM (inactive) in assay [1], 13 µM (inactive) in [5], > 15.2 µM (inactive) in [6] and 6.66 µM (active) in assay [7]. Moreover, the EC50 in [2], in assay [3] and in [4] was > 32 µM (inactive) throughout.
For the compound `CCCCCCCn1c(=N)n(CC(=O)c2ccco2)c2ccccc21`, in [8], the EC50 was > 100 µM (inactive).
By CC50 is commonly meant the concentration giving 50% cytotoxicity. As for `O=C1C(C2=C(O)c3ccccc3C2=O)=Nc2ccccc21`, the EC50 in assay [9] is 37.1 µM (inactive); in [13], 24.7 µM (inactive); in assay [14] it was 1.6 µM (active). The IC50 in assay [10] is 56.9 µM (active); in assay [11] it was 1.31 µM (active). Further, the CC50 in assay [12] is 26.6 µM (active).
Turning to `CC(=O)N1N=C(c2ccccc2)CC1c1cn(Cc2ccccc2)c2ccccc12` (configuration not stated), the IC50 in [15] is 0.748 µM (active); in [17], 2 µM (active). In addition, the EC50 in assay [16] is 1.2 µM (active).
